Molecular target: human GSK3β (Homo sapiens, UniProt P49841)
Experiment: Screening for GSK3 inhibitory activity using a cell-free assay
Assay type: biochemical
Conditions: read-out: IC50 with respect to GSK3
Summary of the method: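 Radiometric cell-free assay with recombinant human GSK3β phosphorylating a biotinylated peptide substrate for 3 h. Reactions were stopped with 50 μM ATP/20 mM EDTA and captured on streptavidin plates. Incorporated radiolabel was counted by scintillation and plotted against compound concentration.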

human GSK3β, sequence (P49841 whole entry): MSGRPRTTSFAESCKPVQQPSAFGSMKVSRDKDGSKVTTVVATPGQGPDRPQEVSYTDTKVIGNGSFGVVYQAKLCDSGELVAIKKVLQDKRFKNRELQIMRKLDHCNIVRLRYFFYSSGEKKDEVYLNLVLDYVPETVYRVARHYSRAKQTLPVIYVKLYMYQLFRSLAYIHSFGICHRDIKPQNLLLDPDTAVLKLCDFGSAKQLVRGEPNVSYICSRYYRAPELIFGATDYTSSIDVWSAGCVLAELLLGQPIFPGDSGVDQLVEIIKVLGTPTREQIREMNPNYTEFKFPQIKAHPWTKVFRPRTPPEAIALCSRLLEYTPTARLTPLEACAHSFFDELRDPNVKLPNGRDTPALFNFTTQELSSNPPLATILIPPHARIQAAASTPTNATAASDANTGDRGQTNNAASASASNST

| IC50 | Structure (SMILES) |
| --- | --- |
| ≤ 10000 nM | CCOC(=O)c1cnc(NCCNc2ccccn2)nc1-c1cccc([N+](=O)[O-])c1 [ethyl 4-(3-nitrophenyl)-2-{[2-(2-pyridylamino)ethyl]amino}pyrimidine-5-carboxylate] |
| ≤ 10000 nM | COc1ccccc1-c1nc(NCCNc2ccc([N+](=O)[O-])cn2)ncc1C(=O)O [4-(2-methoxyphenyl)-2-({2-[(5-nitro(2-pyridyl))amino]ethyl}amino)pyrimidine-5-carboxylic acid] |
| ≤ 10000 nM | Cc1nc(NCCNc2ccc([N+](=O)[O-])cn2)ncc1C(=O)O [4-methyl-2-({2-[(5-nitro(2-pyridyl))amino]ethyl}amino)pyrimidine-5-carboxylic acid] |
| ≤ 1000 nM | CCOC(=O)c1cnc(NCCNc2ccc([N+](=O)[O-])cn2)nc1-c1ccc2ccccc2c1 [ethyl 4-(2-naphthyl)-2-({2-[(5-nitro(2-pyridyl))amino]-ethyl}amino)pyrimidine-5-carboxylate] |
| ≤ 10000 nM | O=[N+]([O-])c1ccc(NCCNc2nccc(NCc3cccc(Br)c3)n2)nc1 [(4-{[(3-bromophenyl)methyl]amino}pyrimidin-2-yl){2-[(5-nitro(2-pyridyl))amino]ethyl}-amine] |
| ≤ 10000 nM | CCOC(=O)c1cnc(NCCNc2ccc([N+](=O)[O-])cn2)nc1-c1ccc(Cl)c(Cl)c1 [ethyl 4-(3,4-dichlorophenyl)-2-({2-[(5-nitro(2-pyridyl))amino]ethyl}amino)pyrimidine-5-carboxylate] |
| ≤ 1000 nM | CCOC(=O)c1cnc(NCCNc2ccc([N+](=O)[O-])cn2)nc1-c1ccncc1 [ethyl 2-({2-[(5-nitro(2-pyridyl))amino]ethyl}amino)-4-(4-pyridyl)pyrimidine-5-carboxylate] |
| ≤ 10000 nM | Cc1nc(NCCNc2ccc([N+](=O)[O-])cn2)ncc1C(=O)NC(Cc1ccccc1)C(N)=O (stereo not shown) [N-(1-carbamoyl-2-phenylethyl)[4-methyl-2-({2-[(5-nitro(2-pyridyl))amino]ethyl}amino)pyrimidin-5-yl]carboxamide] |
| ≤ 1000 nM | CCCCNC(=O)c1cnc(NCCNc2ccc([N+](=O)[O-])cn2)nc1-c1ccc(C#N)cc1 [N-butyl[4-(4-cyanophenyl)-2-({2-[(5-nitro(2-pyridyl))amino]ethyl}amino)pyrimidin-5-yl]carboxamide] |
| ≤ 1000 nM | N#Cc1ccc(-c2nc(NCCNc3ccc([N+](=O)[O-])cn3)ncc2C(=O)NCCN)cc1 [N-(2-aminoethyl)[4-(4-cyanophenyl)-2-({2-[(5-nitro(2-pyridyl))amino]ethyl}amino)pyrimidin-5-yl]carboxamide] |
| ≤ 1000 nM | CCOC(=O)c1cnc(NCCNc2ccc([N+](=O)[O-])cn2)nc1-c1ccc(Cl)cc1Cl [ethyl 4-(2,4-dichlorophenyl)-2-({2-[(5-nitro(2-pyridyl))amino]ethyl}amino)-pyrimidine-5-carboxylate] |
| ≤ 1000 nM | CN(C)CCNC(=O)c1cnc(NCCNc2ccc([N+](=O)[O-])cn2)nc1-c1ccc(C#N)cc1 [N-[2-(dimethylamino)ethyl][4-(4-cyanophenyl)-2-({2-[(5-nitro(2-pyridyl))-amino]ethyl}amino)pyrimidin-5-yl]carboxamide] |

More lines, now with the values behind:

| Structure (SMILES) | IC50 |
| --- | --- |
| Nc1nc(NCCNc2ncc(-c3ncc[nH]3)c(-c3ccc(Br)cc3Cl)n2)ccc1[N+](=O)[O-] [{2-[(6-amino-5-nitro(2-pyridyl))amino]ethyl}[4-(4-bromo-2-chlorophenyl)-5-imidazol-2-ylpyrimidin-2-yl]amine] | ≤ 1000 nM |
| CCOC(=O)c1cnc(NCCNc2ccc(C(=O)OC)cn2)nc1-c1ccc(C#N)cc1 [methyl 6-[(2-{[4-(4-cyanophenyl)-5-(ethoxycarbonyl)pyrimidin-2-yl]amino}ethyl)amino]pyridine-3-carboxylate] | ≤ 10000 nM |
| Nc1nc(NCCNc2ccc(-n3ccnc3)c(-c3ccc(Cl)cc3Cl)n2)ccc1[N+](=O)[O-] [{2-[(6-amino-5-nitro(2-pyridyl))amino]ethyl}[6-(2,4-dichlorophenyl)-5-imidazolyl(2-pyridyl)]amine] | ≤ 1000 nM |
| Nc1nc(NCCNc2ncc(-n3cnc(-c4ccccc4)c3)c(-c3ccc(Cl)cc3Cl)n2)ccc1[N+](=O)[O-] [{2-[(6-amino-5-nitro(2-pyridyl))amino]ethyl}[4-(2,4-dichlorophenyl)-5-(4-phenylimidazolyl)pyrimidin-2-yl]amine] | ≤ 1000 nM |
| Nc1nc(NCCNc2ncc(C(=O)O)c(-c3ccc(Cl)cc3Cl)n2)ccc1[N+](=O)[O-] [2-({2-[(6-amino-5-nitro(2-pyridyl))amino]ethyl}amino)-4-(2,4-dichlorophenyl)pyrimidine-5-carboxylic acid] | ≤ 1000 nM |
| CCOC(=O)c1cnc(NCCNc2ccc([N+](=O)[O-])c(N)n2)nc1-c1ccc(C#N)cc1 [ethyl 2-({2-[(6-amino-5-nitro(2-pyridyl))amino]ethyl}amino)-4-(4-cyanophenyl)pyrimidine-5-carboxylate] | ≤ 1000 nM |
| CCOC(=O)c1c(CC)nc(NCCNc2ccc(C#N)cn2)nc1-c1ccc(C(N)=O)cc1 [ethyl 4-(4-carbamoylphenyl)-2-({2-[(5-cyano(2-pyridyl))amino]ethyl}amino)-6-ethylpyrimidine-5-carboxylate] | ≤ 1000 nM |
| O=C(O)c1c(-c2ccc([N+](=O)[O-])cc2)nc(NCCNc2ccc([N+](=O)[O-])cn2)nc1-c1ccnc2ccccc12 [2-({2-[(5-nitro(2-pyridyl))amino]ethyl}amino)-6-(4-nitrophenyl)-4-(4-quinolyl)pyrimidine-5-carboxylic acid] | ≤ 10000 nM |
| CCOC(=O)c1cnc(NCCNc2ccc([N+](=O)[O-])cn2)nc1-c1ccc(N2CCOCC2)cc1 [ethyl-4-(morpholin-4-ylphenyl)-2-({2-[(5-nitro(2-pyridyl))amino]ethyl}amino)pyrimidine-5-carboxylate] | ≤ 1000 nM |
| COc1cccc(OC)c1CNc1nccc(-c2ccc(C(N)=O)cc2)n1 [4-(2-{[(2,6-dimethoxyphenyl)-methyl]amino}pyrimidin-4-yl)benzamide] | ≤ 10000 nM |
| CCOC(=O)c1cnc(NCCNc2ccc([N+](=O)[O-])cn2)nc1-c1ccc(N2CCOCC2)nc1 [ethyl 4-(6-morpholin-4-yl(3-pyridyl))-2-({2-[(5-nitro(2-pyridyl))amino]-ethyl}amino)pyrimidine-5-carboxylate] | ≤ 1000 nM |
| O=C(NCc1cccc(Br)c1)c1ccc(-c2ccnc(NCCNc3ccc([N+](=O)[O-])cc3)n2)cc1 [N-[(3-bromophenyl)-methyl]{4-[2-({2-[(4-nitrophenyl)amino]ethyl}amino)pyrimidin-4-yl]phenyl}carboxamide] | ≤ 10000 nM |
| Cc1cnc(CNc2nccc(-c3ccc(C(N)=O)cc3)n2)cn1 [4-(2-{[(5-methylpyrazin-2-yl)methyl]amino}pyrimidin-4-yl)benzamide] | ≤ 10000 nM |
| Nc1nc(NCCNc2ncc(N3C(=O)c4ccccc4C3=O)c(-c3ccc(Cl)cc3Cl)n2)ccc1[N+](=O)[O-] [2-[2-({2-[(6-amino-5-nitro(2-pyridyl))amino]ethyl}amino)-4-(2,4-dichlorophenyl)pyrimidin-5-yl]isoindoline-1,3-dione] | ≤ 1000 nM |
| NC(=O)c1ccc(-c2ccnc(NCc3cccc([N+](=O)[O-])c3)n2)cc1 [4-(2-{[(3-nitro-phenyl)methyl]amino}pyrimidin-4-yl)benzamide] | ≤ 10000 nM |
| CN(C)C1CC(=O)N(c2cnc(NCCNc3ccc([N+](=O)[O-])c(N)n3)nc2-c2ccc(Cl)cc2Cl)C1=O (stereo not shown) [1-[2-({2-[(6-amino-5-nitro(2-pyridyl))amino]ethyl}amino)-4-(2,4-dichlorophenyl)pyrimidin-5-yl]-3-(dimethylamino)pyrrolidine-2,5-dione] | ≤ 1000 nM |
| CCOC(=O)c1cnc(NCCNc2ccc([N+](=O)[O-])c(N)n2)nc1-c1ccc(-c2cnco2)cc1 [ethyl 2-({2-[(6-amino-5-nitro(2-pyridyl))amino]ethyl}amino)-4-(4-(1,3-oxazol-5-yl)phenyl)pyrimidine-5-carboxylate] | ≤ 1000 nM |
| N#Cc1ccc(CNc2nccc(-c3ccc(C(N)=O)cc3)n2)cc1 [4-(2-{[(4-cyanophenyl)methyl]amino}pyrimidin-4-yl)benzamide] | ≤ 10000 nM |
| Nc1nc(NCCNc2ncc(C(=O)O)c(-c3ccc([N+](=O)[O-])cc3)n2)ccc1[N+](=O)[O-] | ≤ 1000 nM |
| N#Cc1ccc(-c2nc(NCCNc3ccc([N+](=O)[O-])c(N)n3)ncc2-c2ncc[nH]2)cc1 [4-[2-({2-[(6-amino-5-nitro(2-pyridyl))amino]-ethyl}amino)-5-imidazol-2-ylpyrimidin-4-yl]benzenecarbonitrile] | ≤ 1000 nM |
| Cc1nccn1-c1cnc(NCCNc2ccc([N+](=O)[O-])c(N)n2)nc1-c1ccc(Cl)cc1Cl | ≤ 1000 nM |
| COc1ccc(CNC(=O)c2ccc(-c3ccnc(NCCNc4ccc([N+](=O)[O-])cn4)n3)cc2)cc1OC [N-[(3,4-dimethoxyphenyl)methyl]{4-[2-({2-[(5-nitro(2-pyridyl))amino]ethyl}amino)pyrimidin-4-yl]phenyl}carboxamide] | ≤ 10000 nM |
| N#Cc1ccc(-c2ccnc(NCCc3ccccn3)n2)cc1 [4-{2-[(2-(2-pyridyl)ethyl)-amino]pyrimidin-4-yl}benzenecarbonitrile] | ≤ 10000 nM |
| O=[N+]([O-])c1ccc(NCCNc2ncc(CO)c(-c3ccc(Cl)cc3Cl)n2)nc1 [[4-(2,4-dichlorophenyl)-2-({2-[(5-nitro(2-pyridyl))amino]ethyl}amino)-pyrimidin-5-yl]methan-1-ol] | ≤ 1000 nM |
| COc1ccc(OC)c(CCNc2nccc(-c3ccc(C#N)cc3)n2)c1 [4-(2-{[2-(2,5-dimethoxyphenyl)ethyl]amino}pyrimidin-4-yl)benzene-carbonitrile] | ≤ 10000 nM |
| CN1CCN(c2cnc(NCCNc3ccc([N+](=O)[O-])c(N)n3)nc2-c2ccc(Cl)cc2Cl)CC1 [{2-[(6-amino-5-nitro(2-pyridyl))amino]ethyl}[4-(2,4-dichlorophenyl)-5-(4-methylpiperazinyl)-pyrimidin-2-yl]amine] | ≤ 1000 nM |
| O=c1ccccn1-c1cnc(NCCNc2ccc([N+](=O)[O-])cn2)nc1-c1ccc(Cl)cc1Cl | ≤ 1000 nM |
| NC(=O)c1ccc(-c2ccnc(NCCNc3ccc(C(N)=S)cn3)n2)cc1 [4-{2-[(2-{[5-(aminothioxomethyl)-2-pyridyl]amino}ethyl)amino]pyrimidin-4-yl}benzamide] | ≤ 1000 nM |

Reference: patent US7425557B2, “Inhibitors of glycogen synthase kinase 3” (Novartis Vaccines and Diagnostics, Inc., priority 1998, dated 2008)
